Source: ChEMBL document CHEMBL5728971, “Small molecule inhibitors of lactate dehydrogenase and methods of use thereof” (2022)

Assay: Biochemical Assay: Test compounds were placed in a Greiner Bio-One (Monroe, N.C.) 1536-well black solid bottom assay plate. 200 millimolar (mM) Tris HCl, pH 7.4, 100 micromolar (μM) EDTA and 0.01% TWEEN-20™, final concentration, was used as the assay buffer. The LDHA reagent was 2 nanomolar (nM) Human LDHA (Meridian Life Science, Inc., Memphis, Tenn.), final concentration, in assay buffer.

`NS(=O)(=O)c1ccc(Cc2c(-c3ccc(F)c(-c4ccccc4)c3)nn(-c3nc(C(=O)O)cs3)c2CC2CC2)cc1F` and `NS(=O)(=O)c1ccc(Cc2c(-c3ccc(F)c(-c4ccccc4F)c3)nn(-c3nc(C(=O)O)cs3)c2CC2CC2)cc1F` cannot be ordered by IC50: less than 0.1 µM for the first, less than 0.1 µM for the second.

`CC(C)(C)C#Cc1cc(-c2nn(-c3nc(C(=O)O)cs3)c(CC3CC3)c2Cc2ccc(S(N)(=O)=O)c(F)c2)ccc1F` and `CC#Cc1cc(-c2nn(-c3nc(C(=O)O)cs3)c(CC3CC3)c2Cc2ccc(S(N)(=O)=O)c(F)c2)ccc1F` cannot be ordered by IC50: less than 0.1 µM for the first, less than 0.1 µM for the second.

`NS(=O)(=O)c1ccc(Cc2c(-c3cccc(N4CCC(F)(F)CC4)c3)nn(-c3nc(C(=O)O)cs3)c2CC2CC2)cc1F` and `NS(=O)(=O)c1ccc(Cc2c(-c3cccc(N4CCCC(F)(F)C4)c3)nn(-c3nc(C(=O)O)cs3)c2CC2CC2)cc1F` cannot be ordered by IC50: less than 0.1 µM for the first, less than 0.1 µM for the second.

`NS(=O)(=O)c1ccc(Cc2c(-c3cccc(N4CCCC(C(F)(F)F)C4)c3)nn(-c3nc(C(=O)O)cs3)c2CC2CC2)cc1F` (stereo not given) and `NS(=O)(=O)c1ccc(Cc2c(-c3cccc(N4CCC(C(F)(F)F)CC4)c3)nn(-c3nc(C(=O)O)cs3)c2CC2CC2)cc1F` cannot be ordered by IC50: less than 0.1 µM for the first, less than 0.1 µM for the second.

`NS(=O)(=O)c1ccc(Cc2c(-c3ccc(F)c(OCC4CC4(F)F)c3)nn(-c3nc(C(=O)O)cs3)c2CC2CC2)cc1F` (stereo not given) and `NS(=O)(=O)c1ccc(Cc2c(-c3ccc(F)c(C4CC4)c3)nn(-c3nc(C(=O)O)cs3)c2CC2CC2)cc1F` cannot be ordered by IC50: less than 0.1 µM for the first, less than 0.1 µM for the second.

`NS(=O)(=O)c1ccc(Cc2c(-c3ccc(F)c(C4=CCN(C(=O)C5CC5)CC4)c3)nn(-c3nc(C(=O)O)cs3)c2CC2CC2)cc1F` and `NS(=O)(=O)c1ccc(Cc2c(-c3ccc(F)c(C4=CCNCC4)c3)nn(-c3nc(C(=O)O)cs3)c2CC2CC2)cc1F` cannot be ordered by IC50: less than 0.1 µM for the first, less than 0.1 µM for the second.

`NS(=O)(=O)c1ccc(Cc2c(-c3cccc(-c4ccc(F)cc4)c3)nn(-c3nc(C(=O)O)cs3)c2C2CC2)c(F)c1` and `Cc1ccc(-c2cccc(-c3nn(-c4nc(C(=O)O)cs4)c(C4CC4)c3Cc3ccc(S(N)(=O)=O)cc3F)c2)cc1` cannot be ordered by IC50: less than 0.1 µM for the first, less than 0.1 µM for the second.

`NS(=O)(=O)c1ccc(Cc2c(-c3ccc(F)c(-c4cccc(CN5CCOCC5)c4)c3)nn(-c3nc(C(=O)O)cs3)c2CC2CC2)cc1F` and `NS(=O)(=O)c1ccc(Cc2c(-c3ccc(F)c(C4=COCCC4)c3)nn(-c3nc(C(=O)O)cs3)c2CC2CC2)cc1F` cannot be ordered by IC50: less than 0.1 µM for the first, less than 0.1 µM for the second.

`NS(=O)(=O)c1ccc(Cc2c(-c3ccc(F)c(CC4CC4)c3)nn(-c3nc(C(=O)O)cs3)c2CC2CC2)cc1F` and `NS(=O)(=O)c1ccc(Cc2c(-c3ccc(F)c(C4CCC4)c3)nn(-c3nc(C(=O)O)cs3)c2CC2CC2)cc1F` cannot be ordered by IC50: less than 0.1 µM for the first, less than 0.1 µM for the second.

`COc1cccc(-c2cccc(-c3nn(-c4nc(C(=O)O)cs4)c(C4CC4)c3Cc3ccc(S(N)(=O)=O)cc3F)c2)c1` and `NS(=O)(=O)c1ccc(Cc2c(-c3cccc(-c4cccc(F)c4)c3)nn(-c3nc(C(=O)O)cs3)c2C2CC2)c(F)c1` cannot be ordered by IC50: less than 0.1 µM for the first, less than 0.1 µM for the second.

`NS(=O)(=O)c1ccc(Cc2c(-c3ccc(F)c(C4CCCCC4)c3)nn(-c3nc(C(=O)O)cs3)c2CC2CC2)cc1F` and `NS(=O)(=O)c1ccc(Cc2c(-c3ccc(F)c(C4CCCC4)c3)nn(-c3nc(C(=O)O)cs3)c2CC2CC2)cc1F` cannot be ordered by IC50: less than 0.1 µM for the first, less than 0.1 µM for the second.

`NS(=O)(=O)c1ccc(Cc2c(-c3cccc(-c4cccc(F)c4)c3)nn(-c3nc(C(=O)O)cs3)c2CC2CC2)cc1` and `NS(=O)(=O)c1ccc(Cc2c(-c3cccc(-c4cccc(F)c4)c3)nn(-c3nc(C(=O)O)cs3)c2CC2CC2)cc1F` cannot be ordered by IC50: less than 0.1 µM for the first, less than 0.1 µM for the second.

`NS(=O)(=O)c1ccc(Cc2c(-c3cccc(C(O)(C4CC4)C(F)(F)F)c3)nn(-c3nc(C(=O)O)cs3)c2CC2CC2)cc1F` (stereo not given) and `NS(=O)(=O)c1ccc(Cc2c(-c3cccc(S(F)(F)(F)(F)F)c3)nn(-c3nc(C(=O)O)cs3)c2CC2CC2)cc1F` cannot be ordered by IC50: less than 0.1 µM for the first, less than 0.1 µM for the second.

`CC(c1ccccc1)c1cc(-c2nn(-c3nc(C(=O)O)cs3)c(CC3CC3)c2Cc2ccc(S(N)(=O)=O)c(F)c2)ccc1F` (stereo not given) and `CC(C)c1cc(-c2nn(-c3nc(C(=O)O)cs3)c(CC3CC3)c2Cc2ccc(S(N)(=O)=O)c(F)c2)ccc1F` cannot be ordered by IC50: less than 0.1 µM for the first, less than 0.1 µM for the second.

`NS(=O)(=O)c1ccc(Cc2c(-c3cccc(-c4ccc(F)cc4)c3)nn(-c3nc(C(=O)O)cs3)c2C2CC2)cc1F` and `Cc1ccc(-c2cccc(-c3nn(-c4nc(C(=O)O)cs4)c(C4CC4)c3Cc3ccc(S(N)(=O)=O)c(F)c3)c2)cc1` cannot be ordered by IC50: less than 0.1 µM for the first, less than 0.1 µM for the second.

`CN1CCC(c2cc(-c3nn(-c4nc(C(=O)O)cs4)c(CC4CC4)c3Cc3ccc(S(N)(=O)=O)c(F)c3)ccc2F)CC1` and `NS(=O)(=O)c1ccc(Cc2c(-c3ccc(F)c(C4CCOCC4)c3)nn(-c3nc(C(=O)O)cs3)c2CC2CC2)cc1F` cannot be ordered by IC50: less than 0.1 µM for the first, less than 0.1 µM for the second.

Compared with `CCOC(=O)c1csc(-n2nc(-c3cccc(-c4ccccc4)c3)c(Cc3ccc(S(N)(=O)=O)c(F)c3)c2CC2CC2)n1`, `NS(=O)(=O)c1ccc(Cc2c(-c3cccc(-c4cccc(F)c4)c3)nn(-c3nc(C(=O)O)cs3)c2C2CC2)cc1F` is lower in IC50: greater than 57 µM for the first, less than 0.1 µM for the second.

`NS(=O)(=O)c1ccc(Cc2c(-c3cccc(C4CCCC4)c3)nn(-c3nc(C(=O)O)cs3)c2CC2CC2)cc1` and `CCC(C)(C)c1cc(-c2nn(-c3nc(C(=O)O)cs3)c(CC3CC3)c2Cc2ccc(S(N)(=O)=O)c(F)c2)ccc1F` cannot be ordered by IC50: less than 0.1 µM for the first, less than 0.1 µM for the second.

`NS(=O)(=O)c1ccc(Cc2c(-c3ccc(F)c(CCCCC(F)(F)F)c3)nn(-c3nc(C(=O)O)cs3)c2CC2CC2)cc1F` and `CC(C)(C)Cc1cc(-c2nn(-c3nc(C(=O)O)cs3)c(CC3CC3)c2Cc2ccc(S(N)(=O)=O)c(F)c2)ccc1F` cannot be ordered by IC50: less than 0.1 µM for the first, less than 0.1 µM for the second.

In the case of `NS(=O)(=O)c1ccc(Cc2c(-c3cccc(N4CCC(F)(F)C4)c3)nn(-c3nc(C(=O)O)cs3)c2CC2CC2)cc1F`, the IC50 is reported as “in the range around 29 µM”.
With `NS(=O)(=O)c1ccc(Cc2c(CC3CC3)nn(-c3nc(C(=O)O)cs3)c2-c2ccc(C(O)(C3CC3)C(F)(F)F)cc2)cc1F` (stereo not given) the IC50 was “in the range around 29 µM”.
In the case of `Cc1ccc(-c2cccc(-c3c(Cc4ccc(S(N)(=O)=O)cc4F)c(C4CC4)nn3-c3nc(C(=O)O)cs3)c2)cc1`, the IC50 is reported as “in the range around 29 µM”.
For `NS(=O)(=O)c1ccc(Cc2c(C3CC3)nn(-c3nc(C(=O)O)cs3)c2-c2cccc(-c3cccc(F)c3)c2)cc1F`, the IC50 was “in the range around 29 µM”.
For `COc1cccc(-c2cccc(-c3c(Cc4ccc(S(N)(=O)=O)c(F)c4)c(C4CC4)nn3-c3nc(C(=O)O)cs3)c2)c1`, the IC50 was “in the range around 29 µM”.
For `CNS(=O)(=O)c1ccc(Cc2c(-c3ccc(F)c(-c4cccc(F)c4)c3)nn(-c3nc(C(=O)O)cs3)c2CC2CC2)cc1F`, the IC50 was “in the range around 0.55 µM”.
In the case of `NS(=O)(=O)c1ccc(Cc2c(C3CC3)nn(-c3nc(C(=O)O)cs3)c2-c2cccc(-c3ccc(F)cc3)c2)cc1F`, the IC50 is reported as “in the range around 29 µM”.
In the case of `NS(=O)(=O)c1ccc(Cc2c(C3CC3)nn(-c3nc(C(=O)O)cs3)c2-c2cccc(-c3cccc(F)c3)c2)c(F)c1`, the IC50 is reported as “in the range around 29 µM”.
In the case of `NS(=O)(=O)c1ccc(Cc2c(C3CC3)nn(-c3nc(C(=O)O)cs3)c2-c2cccc(-c3ccc(F)cc3)c2)c(F)c1`, the IC50 is reported as “in the range around 29 µM”.
With `NS(=O)(=O)c1cccc(Cc2c(-c3ccc(F)c(-c4cccc(F)c4)c3)nn(-c3nc(C(=O)O)cs3)c2CC2CC2)c1` the IC50 was “in the range around 29 µM”.
With `NS(=O)(=O)c1ccc(Cc2c(-c3ccc(F)c(C4C5CC6CC(C5)CC4C6)c3)nn(-c3nc(C(=O)O)cs3)c2CC2CC2)cc1F` (stereo not given) the IC50 was “in the range around 0.55 µM”.
In the case of `COc1cccc(-c2cccc(-c3c(Cc4ccc(S(N)(=O)=O)cc4F)c(C4CC4)nn3-c3nc(C(=O)O)cs3)c2)c1`, the IC50 is reported as “in the range around 29 µM”.
